Data taken from ChEMBL document CHEMBL1201862, “PubChem BioAssay data set” (2004).
The source made the active and inactive calls.

How the values were obtained:
Protein Rev = Protein Rev (Human immunodeficiency virus type 1 group M subtype B (isolate HXB2)(HIV-1), UniProt P04618); experiment: inhibitors of Rev binding to RRE RNA, dose response, biochemical, fluorescence polarization, HIV-1 (AID 434976); parameters: species or system Human immunodeficiency virus 1
[1] = biological target: Female germline-specific tumor suppressor gld-1 (Caenorhabditis elegans, UniProt Q17339); experiment: inhibitors of GLD-1 binding to TGE RNA, dose response, biochemical, fluorescence polarization, C. elegans (AID 2802);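 note: fluorescence polarization of labeled TGE RNA bound by purified gld-1 protein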
Sequence of Female germline-specific tumor suppressor gld-1 (Q17339 whole entry): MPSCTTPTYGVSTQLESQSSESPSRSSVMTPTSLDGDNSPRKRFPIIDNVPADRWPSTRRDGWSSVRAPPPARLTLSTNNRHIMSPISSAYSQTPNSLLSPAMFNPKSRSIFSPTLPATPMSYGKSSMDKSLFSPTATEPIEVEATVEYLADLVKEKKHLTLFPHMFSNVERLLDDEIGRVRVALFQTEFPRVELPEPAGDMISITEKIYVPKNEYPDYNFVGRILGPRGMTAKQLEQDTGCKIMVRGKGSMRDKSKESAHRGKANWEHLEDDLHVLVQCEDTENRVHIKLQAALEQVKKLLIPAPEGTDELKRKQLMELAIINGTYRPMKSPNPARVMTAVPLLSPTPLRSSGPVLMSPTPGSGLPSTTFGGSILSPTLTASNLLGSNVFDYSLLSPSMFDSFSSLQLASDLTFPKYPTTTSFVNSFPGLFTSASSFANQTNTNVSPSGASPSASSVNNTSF

[2] = biological target: T1, Neuropeptides B/W receptor type 1 (Homo sapiens, UniProt P48145); experiment: GPR7 antagonist potency, late-stage follow-up, cell-based, fluorescence, dose response (AID 463251); type: functional
T1 sequence (P48145 whole entry): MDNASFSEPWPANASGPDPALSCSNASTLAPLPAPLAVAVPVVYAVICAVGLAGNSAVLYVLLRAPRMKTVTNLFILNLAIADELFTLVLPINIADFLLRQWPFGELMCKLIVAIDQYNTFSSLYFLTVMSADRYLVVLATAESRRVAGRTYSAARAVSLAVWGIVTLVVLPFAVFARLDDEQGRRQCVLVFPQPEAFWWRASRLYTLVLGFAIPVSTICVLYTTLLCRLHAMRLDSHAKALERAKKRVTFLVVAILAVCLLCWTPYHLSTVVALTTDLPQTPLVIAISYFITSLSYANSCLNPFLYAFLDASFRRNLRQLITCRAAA

[3] = system: Streptococcus sp. 'group A'; experiment: growth inhibition of control SK(-) GAS strain, dose response, counter-screen for streptokinase expression inhibitor project, luminescence, kanamycin, BacTiterGlo, confirmation (AID 1900); type: functional, organism-based
Streptokinase A = biological target: T2, Streptokinase A (Streptococcus pyogenes serotype M1, UniProt P10520); experiment: S. pyogenes streptokinase expression inhibitors, potency, dose response, plasminogen activation absorbance, OD405 (AID 1914); type: functional, Streptococcus pyogenes M1 GAS;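 note: secreted streptokinase activity via plasminogen activation per viability signal from cell pellet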
T2 sequence (P10520 whole entry): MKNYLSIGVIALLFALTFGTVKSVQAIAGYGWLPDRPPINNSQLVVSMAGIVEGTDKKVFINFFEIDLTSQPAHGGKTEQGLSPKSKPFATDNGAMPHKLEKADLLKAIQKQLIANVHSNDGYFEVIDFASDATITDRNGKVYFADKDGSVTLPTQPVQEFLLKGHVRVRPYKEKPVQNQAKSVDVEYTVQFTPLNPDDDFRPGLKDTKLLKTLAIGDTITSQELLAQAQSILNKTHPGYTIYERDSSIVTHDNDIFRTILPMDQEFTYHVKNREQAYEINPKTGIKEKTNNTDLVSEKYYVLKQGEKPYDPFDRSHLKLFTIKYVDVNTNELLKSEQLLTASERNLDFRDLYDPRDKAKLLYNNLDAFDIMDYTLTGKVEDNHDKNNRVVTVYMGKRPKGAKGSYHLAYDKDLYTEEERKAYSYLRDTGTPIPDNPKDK

[4] = inhibitors of intracellular T. cruzi replication, confirmation, NIH3T3 host cells, beta-gal luminescence (AID 2044); type: functional, cell-based;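 note: intracellular parasites grown in NIH/3T3 mouse fibroblasts as host cells; luminescent beta-galactosidase reporter signal from transgenic T. cruzi replicating inside host cells; inhibitors lower the luminescence signal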
[5] = cytotoxicity toward NIH3T3 fibroblasts, dose response, counter-screen, cell-based, ATP luminescence, mouse fibroblasts (AID 2010); type: functional;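 note: cells exposed to compound for about 90 hours before reading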
Streptococcus = experiment: Group A Streptococcus viability loss, dose response, counter-screen for streptokinase expression inhibitor project, luminescence, BacTiterGlo (AID 1915); type: functional, organism-based;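 note: potency for reduction of bacterial viability or growth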
Exodeoxyribonuclease V = biological target: T3, Exodeoxyribonuclease V (Escherichia coli (strain K12), UniProt P04993+P07648+P08394); experiment: E. coli RecBCD inhibitors, dose response, counter-screen for AddAB inhibitor project, absorbance, V66 E. coli, mutant T4 phage (AID 492957); type: functional, cell-based, Escherichia coli str. K-12 substr. MG1655
T3 sequence (P04993 whole entry): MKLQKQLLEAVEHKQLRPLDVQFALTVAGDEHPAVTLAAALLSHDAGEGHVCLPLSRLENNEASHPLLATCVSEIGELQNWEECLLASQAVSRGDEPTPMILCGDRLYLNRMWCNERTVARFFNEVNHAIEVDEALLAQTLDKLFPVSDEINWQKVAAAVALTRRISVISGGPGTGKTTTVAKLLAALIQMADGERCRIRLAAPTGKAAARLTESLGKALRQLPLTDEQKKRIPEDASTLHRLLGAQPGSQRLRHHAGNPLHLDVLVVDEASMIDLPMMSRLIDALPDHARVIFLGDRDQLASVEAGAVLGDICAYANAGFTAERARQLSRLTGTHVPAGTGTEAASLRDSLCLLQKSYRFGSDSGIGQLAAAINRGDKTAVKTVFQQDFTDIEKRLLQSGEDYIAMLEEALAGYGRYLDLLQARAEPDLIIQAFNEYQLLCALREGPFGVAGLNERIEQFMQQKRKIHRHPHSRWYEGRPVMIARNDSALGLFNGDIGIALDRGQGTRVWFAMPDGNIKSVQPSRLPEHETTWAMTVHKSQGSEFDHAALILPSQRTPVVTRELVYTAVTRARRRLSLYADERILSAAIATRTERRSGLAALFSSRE
T3 sequence (P07648 whole entry): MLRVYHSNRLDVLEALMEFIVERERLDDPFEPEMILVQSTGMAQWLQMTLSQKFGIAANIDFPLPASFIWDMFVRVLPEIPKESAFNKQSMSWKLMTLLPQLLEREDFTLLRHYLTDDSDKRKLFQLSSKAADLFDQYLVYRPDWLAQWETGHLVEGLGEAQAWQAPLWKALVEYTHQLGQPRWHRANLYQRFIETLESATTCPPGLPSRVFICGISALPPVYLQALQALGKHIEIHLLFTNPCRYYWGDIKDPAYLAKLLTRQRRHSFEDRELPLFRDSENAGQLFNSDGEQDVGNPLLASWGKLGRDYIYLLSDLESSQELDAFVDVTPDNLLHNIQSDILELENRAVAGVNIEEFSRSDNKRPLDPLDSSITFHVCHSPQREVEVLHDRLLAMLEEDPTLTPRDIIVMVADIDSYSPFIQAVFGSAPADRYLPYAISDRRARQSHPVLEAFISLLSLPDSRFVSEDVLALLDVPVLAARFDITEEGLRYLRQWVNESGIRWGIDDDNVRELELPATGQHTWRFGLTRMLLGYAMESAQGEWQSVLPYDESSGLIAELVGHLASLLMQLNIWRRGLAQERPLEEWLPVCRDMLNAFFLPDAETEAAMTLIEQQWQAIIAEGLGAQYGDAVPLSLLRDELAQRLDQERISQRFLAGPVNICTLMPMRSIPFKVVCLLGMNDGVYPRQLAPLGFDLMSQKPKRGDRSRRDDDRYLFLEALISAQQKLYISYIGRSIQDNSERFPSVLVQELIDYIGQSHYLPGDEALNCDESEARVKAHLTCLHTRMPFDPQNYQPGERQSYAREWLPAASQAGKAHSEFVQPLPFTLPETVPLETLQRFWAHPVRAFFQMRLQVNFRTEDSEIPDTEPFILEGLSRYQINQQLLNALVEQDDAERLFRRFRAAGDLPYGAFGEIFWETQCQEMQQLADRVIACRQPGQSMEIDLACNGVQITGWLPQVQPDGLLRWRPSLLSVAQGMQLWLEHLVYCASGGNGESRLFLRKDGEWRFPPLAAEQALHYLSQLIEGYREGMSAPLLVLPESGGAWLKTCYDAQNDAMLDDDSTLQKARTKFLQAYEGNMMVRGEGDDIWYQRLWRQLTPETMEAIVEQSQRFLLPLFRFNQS
T3 sequence (P08394 whole entry): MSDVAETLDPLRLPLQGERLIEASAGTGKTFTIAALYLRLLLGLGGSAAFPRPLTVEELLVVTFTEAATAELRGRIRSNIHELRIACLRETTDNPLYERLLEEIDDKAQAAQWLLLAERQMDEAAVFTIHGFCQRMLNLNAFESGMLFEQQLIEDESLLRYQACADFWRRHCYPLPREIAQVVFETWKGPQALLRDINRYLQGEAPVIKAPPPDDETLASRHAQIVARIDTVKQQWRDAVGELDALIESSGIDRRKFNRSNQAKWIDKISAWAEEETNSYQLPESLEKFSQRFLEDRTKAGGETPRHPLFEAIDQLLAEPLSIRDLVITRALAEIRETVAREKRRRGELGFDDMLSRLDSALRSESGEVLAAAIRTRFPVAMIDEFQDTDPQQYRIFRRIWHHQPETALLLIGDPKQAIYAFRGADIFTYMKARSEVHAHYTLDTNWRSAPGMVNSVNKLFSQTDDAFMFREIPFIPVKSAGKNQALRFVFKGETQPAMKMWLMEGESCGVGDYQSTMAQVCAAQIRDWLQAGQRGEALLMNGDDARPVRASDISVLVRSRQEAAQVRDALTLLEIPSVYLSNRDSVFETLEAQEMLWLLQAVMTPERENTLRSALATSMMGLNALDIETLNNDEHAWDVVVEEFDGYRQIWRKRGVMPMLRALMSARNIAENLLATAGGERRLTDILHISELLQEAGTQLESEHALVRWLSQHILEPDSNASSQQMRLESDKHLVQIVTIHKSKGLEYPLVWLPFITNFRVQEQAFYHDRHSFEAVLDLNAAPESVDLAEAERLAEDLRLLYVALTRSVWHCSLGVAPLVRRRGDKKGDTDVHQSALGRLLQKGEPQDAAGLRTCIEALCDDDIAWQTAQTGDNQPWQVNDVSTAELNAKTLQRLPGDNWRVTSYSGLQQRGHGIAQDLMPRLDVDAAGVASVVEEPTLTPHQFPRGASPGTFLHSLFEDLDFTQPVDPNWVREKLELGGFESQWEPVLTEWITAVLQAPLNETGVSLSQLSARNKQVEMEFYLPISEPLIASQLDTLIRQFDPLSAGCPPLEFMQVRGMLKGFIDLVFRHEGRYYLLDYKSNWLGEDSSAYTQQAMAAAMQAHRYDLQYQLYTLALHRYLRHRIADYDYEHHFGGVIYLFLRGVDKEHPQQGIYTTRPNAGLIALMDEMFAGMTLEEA

[6] = biological target: NACHT, LRR and PYD domains-containing protein 3 (Homo sapiens, UniProt Q96P20); experiment: NALP3 inhibitors in yeast, dose response, luminescent (AID 488799); type: functional
Sequence of NACHT, LRR and PYD domains-containing protein 3 (Q96P20 whole entry, the tested form may be a part): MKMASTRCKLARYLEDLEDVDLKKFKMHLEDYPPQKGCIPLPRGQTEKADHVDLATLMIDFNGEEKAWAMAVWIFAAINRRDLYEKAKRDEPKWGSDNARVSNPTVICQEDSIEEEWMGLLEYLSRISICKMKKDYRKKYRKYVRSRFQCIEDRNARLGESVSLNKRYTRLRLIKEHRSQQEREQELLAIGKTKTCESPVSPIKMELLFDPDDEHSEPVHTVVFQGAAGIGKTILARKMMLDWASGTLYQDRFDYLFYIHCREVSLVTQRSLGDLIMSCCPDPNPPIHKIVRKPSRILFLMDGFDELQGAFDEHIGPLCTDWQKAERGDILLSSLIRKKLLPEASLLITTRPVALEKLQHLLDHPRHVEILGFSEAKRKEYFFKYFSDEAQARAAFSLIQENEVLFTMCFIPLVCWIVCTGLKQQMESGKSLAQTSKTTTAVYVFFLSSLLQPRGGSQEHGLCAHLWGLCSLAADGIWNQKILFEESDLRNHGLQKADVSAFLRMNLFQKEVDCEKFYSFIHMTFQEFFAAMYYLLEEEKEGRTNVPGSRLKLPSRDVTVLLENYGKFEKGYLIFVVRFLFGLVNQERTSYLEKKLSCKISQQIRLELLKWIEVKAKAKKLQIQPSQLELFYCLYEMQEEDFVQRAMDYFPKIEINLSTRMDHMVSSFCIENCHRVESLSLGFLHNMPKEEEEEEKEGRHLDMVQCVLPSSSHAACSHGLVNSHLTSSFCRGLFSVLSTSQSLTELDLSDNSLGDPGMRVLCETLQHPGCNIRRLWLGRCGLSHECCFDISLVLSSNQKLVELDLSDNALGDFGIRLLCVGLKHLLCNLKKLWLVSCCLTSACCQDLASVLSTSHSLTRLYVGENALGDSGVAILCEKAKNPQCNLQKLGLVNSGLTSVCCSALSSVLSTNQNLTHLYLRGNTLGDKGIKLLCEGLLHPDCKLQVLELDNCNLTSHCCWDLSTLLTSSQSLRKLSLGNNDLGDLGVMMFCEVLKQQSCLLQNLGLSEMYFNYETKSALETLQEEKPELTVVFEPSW

[7] = Counterscreen for AddAB inhibitors: absorbance-based bacterial cell-based high throughput dose response assay for inhibitors of bacterial viability. [Related pubchem assays (depositor defined):AID435030, AID449728, AID449731, AID488942, AID488955, AID488956]; type: functional
INS1 = experiment: beta cell apoptosis inhibitors, cytokine rescue, dose response, luminescence, retest (AID 449756); type: functional, cell-based; conditions: Rattus norvegicus;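 note: cell death triggered by IL-1 beta plus TNF-alpha plus IFN-gamma mixture; protective hits raise ATP signal compared with cytokine alone wells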

Sequence of Protein Rev (P04618 whole entry): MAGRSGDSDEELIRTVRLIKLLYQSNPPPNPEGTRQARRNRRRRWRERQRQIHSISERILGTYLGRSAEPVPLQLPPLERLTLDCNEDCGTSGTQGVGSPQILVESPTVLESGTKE

Nc1cccc2c1C(=O)N(Cc1cccc(Cl)c1)C2=O
IC50 (Protein Rev): 17.9 µM (not active) | IC50 [1]: 4.97 µM (active)

COc1ccc(Oc2c(C)cnn(-c3ccccc3)c2=O)cc1
IC50 [2]: > 20 µM (inactive)

N#Cc1ccc(NC(=O)Nc2ccc(Cl)cc2)cc1
EC50 [3]: 31.4 µM (active) | EC50 (Streptokinase A): > 150 µM (not active) | EC50 [4]: 2.67 µM (active) | EC50 [5]: 7.48 µM (active) | EC50 (Streptococcus): > 150 µM (not active) | IC50 (Exodeoxyribonuclease V): > 119 µM (inactive) | IC50 [6]: 3.53 µM (active) | IC50 [7]: > 119 µM (inactive) | AC50 (INS1): 4 µM (active)
